The text below walks through data of ChEMBL document CHEMBL1177851, “Some new biologically active metal-based sulfonamide” (Eur J Med Chem, 2010).

Converted amounts (≈) assume the structure as drawn.

One data set concerns Escherichia coli. Nature of the data set: Antibacterial activity against Escherichia coli at 50 ug/ml after 24 hrs by agar-well diffusion assay. The format is functional. To be noted: read-out: IZ. A general note: In agar diffusion tests the substance spreads into inoculated agar from a disc or well.
The test system of the next data set is Shigella flexneri. Nature of the data set: Antibacterial activity against Shigella flexneri at 50 ug/ml after 24 hrs by agar-well diffusion assay. In kind it is functional. To be noted: read-out: IZ.
The test system of a further data set is Pseudomonas aeruginosa. The data set can be described thus: Antibacterial activity against Pseudomonas aeruginosa at 50 ug/ml after 24 hrs by agar-well diffusion assay. The format is functional. To be noted: read-out: IZ.
The subject of another data set is Salmonella enterica. The data set can be described thus: Antibacterial activity against Salmonella typhi at 50 ug/ml after 24 hrs by agar-well diffusion assay. The format is functional, Salmonella enterica subsp. enterica serovar Typhi. To be noted: read-out: IZ.
For a further data set, the system named is Staphylococcus aureus. The data set can be described thus: Antibacterial activity against Staphylococcus aureus at 50 ug/ml after 24 hrs by agar-well diffusion assay. To be noted: read-out: IZ. In kind it is functional.
Another data set concerns Bacillus subtilis. The data set can be described thus: Antibacterial activity against Bacillus subtilis at 50 ug/ml after 24 hrs by agar-well diffusion assay. In kind it is functional. To be noted: read-out: IZ.
The subject of another data set is Trichophyton longifusum. The data set can be described thus: Antifungal activity against Trichophyton longifusum at 200 ug/ml after 7 days. In kind it is functional. To be noted: 168 h.
In another data set the test system is Candida albicans. Nature of the data set: Antifungal activity against Candida albicans at 200 ug/ml after 7 days. To be noted: 168 h. In kind it is functional.
The next data set has as its system Aspergillus flavus. Nature of the data set: Antifungal activity against Aspergillus flavus at 200 ug/ml after 7 days. The format is functional. To be noted: 168 h.
The test system of a further data set is Microsporum canis. The data set can be described thus: Antifungal activity against Microsporum canis at 200 ug/ml after 7 days. In kind it is functional. To be noted: 168 h.
A further data set concerns Nakaseomyces glabratus. The data set can be described thus: Antifungal activity against Candida glabrata at 200 ug/ml after 7 days. In kind it is functional. To be noted: 168 h.
Data set [1] in a line: Cytotoxicity against Artemia salina leach eggs. To be noted: Egg, read-out: LD50 (the source's name).
Another data set has as its system Fusarium solani. Nature of the data set: Antifungal activity against Fusarium solani at 200 ug/ml after 7 days. In kind it is functional. To be noted: 168 h.

On to `Cc1cc(C)nc(NS(=O)(=O)c2ccc(/N=C/c3cc(Br)ccc3O)cc2)n1`, for which the zone of inhibition at 50 µg/mL was determined as 18 mm in the data set with Escherichia coli; 6 mm in the data set on Shigella flexneri; 13 mm in the data set with Pseudomonas aeruginosa; 11 mm in the data set with Salmonella enterica; 17 mm with Staphylococcus aureus; 15 mm in the data set with Bacillus subtilis. Moreover, the inhibition at 200 µg/mL amounted to 80% with Trichophyton longifusum; 0% in the data set on Candida albicans; 38% with Aspergillus flavus; 73% in the data set with Microsporum canis; 0% in the data set on Nakaseomyces glabratus; 20% with Fusarium solani. Also, the LC50 in [1] is more than 3.16 mM.
As for `C[C@@H](O)[C@H]1C(=O)N2C(C(=O)O)=C(SCCNC=N)C[C@H]12` [IMIPENEM ANHYDROUS], the zone of inhibition at 50 µg/mL in the data set with Escherichia coli came out at 24 mm; with Shigella flexneri, 20 mm; in the data set on Pseudomonas aeruginosa, 24 mm; with Salmonella enterica it was 25 mm; with Staphylococcus aureus, 26 mm; with Bacillus subtilis, 26 mm.
On to `O=S(=O)(Nc1ncccn1)c1ccc(/N=C/c2cc(Br)ccc2O)cc1`, for which the zone of inhibition at 50 µg/mL in the data set on Escherichia coli came out at 17 mm; with Shigella flexneri it was 8 mm; with Pseudomonas aeruginosa, 12 mm; in the data set with Salmonella enterica, 13 mm; in the data set on Staphylococcus aureus, 16 mm; in the data set with Bacillus subtilis, 15 mm. In addition, the inhibition at 200 µg/mL with Trichophyton longifusum came to 81%; in the data set with Candida albicans it was 34%; in the data set with Aspergillus flavus, 78%; in the data set on Microsporum canis, 0%; in the data set on Nakaseomyces glabratus it was 80%; in the data set on Fusarium solani it was 48%. The LC50 in data set [1] was more than 3.16 mM.
Regarding `Clc1ccc(COC(Cn2ccnc2)c2ccc(Cl)cc2Cl)c(Cl)c1` (stereo not drawn) [MICONAZOLE], the MIC in the data set on Trichophyton longifusum stood at 70 µg/mL (≈ 168 µM); against Candida albicans, 111 µg/mL (≈ 266 µM); against Microsporum canis, 98.4 µg/mL (≈ 236 µM); against Nakaseomyces glabratus, 73.2 µg/mL (≈ 176 µM); with Fusarium solani, 111 µg/mL (≈ 266 µM).
The compound `C[C@@H]1[C@H](O)[C@@H](C)/C=C/C=C/C=C/C=C/C=C/C=C/C=C/[C@H](O[C@@H]2O[C@H](C)[C@@H](O)[C@H](N)[C@@H]2O)C[C@@H]2O[C@](O)(C[C@@H](O)C[C@@H](O)[C@H](O)CC[C@@H](O)C[C@@H](O)CC(=O)O[C@H]1C)C[C@H](O)[C@H]2C(=O)O` [AMPHOTERICIN B] displayed a minimal inhibitory concentration (MIC) against Aspergillus flavus of 20 µg/mL (≈ 21.6 µM).

For orientation: inhibition means the relative decrease from the control value, in per cent. A lower inhibition goes with a weak effect. As usually defined, the MIC is the lowest concentration that inhibits growth of the organism. A high value points to a need for much substance.
